Details: for mass density: Fluid (supercritical or subcritical phases), Vibrating tube method

C/C=C/C [(E)-2-butene]
Details	Critical density [kg/m3]	mass density [kg/m3]	vapor or sublimation pressure [kPa]
391.25 K, Liquid	–	–	2128.9
393.24 K, 2756 kPa	–	454.89	–
393.24 K, 10003 kPa	–	497.51	–
393.24 K, 19992 kPa	–	528.52	–
393.24 K, 24995 kPa	–	539.91	–
393.24 K, 29988 kPa	–	549.71	–
393.24 K, 34990 kPa	–	558.37	–
393.24 K, 39993 kPa	–	566.17	–
393.25 K, 4997 kPa	–	472.39	–
393.25 K, 14998 kPa	–	514.88	–
396.15 K, Liquid	–	–	2323.1
398.24 K, 2959 kPa	–	443.84	–
398.24 K, 4981 kPa	–	462.17	–
398.24 K, 19993 kPa	–	522.99	–
398.24 K, 24990 kPa	–	534.84	–
398.24 K, 29994 kPa	–	545.03	–
398.24 K, 34989 kPa	–	553.97	–
398.24 K, 39985 kPa	–	561.98	–
398.25 K, 9988 kPa	–	490.01	–
398.25 K, 14985 kPa	–	508.6	–
401.02 K, Liquid	–	–	2529.8
403.24 K, 3180 kPa	–	432.03	–
403.24 K, 4993 kPa	–	451.14	–
403.24 K, 20001 kPa	–	517.41	–
403.24 K, 24988 kPa	–	529.74	–
403.24 K, 29983 kPa	–	540.28	–
403.24 K, 40005 kPa	–	557.82	–
403.25 K, 9990 kPa	–	482.36	–
403.25 K, 14985 kPa	–	502.24	–
403.25 K, 34985 kPa	–	549.53	–
405.96 K, Liquid	–	–	2755.8
408.25 K, 3414 kPa	–	419.31	–
408.25 K, 4983 kPa	–	439.35	–
408.25 K, 9983 kPa	–	474.42	–
408.25 K, 14983 kPa	–	495.75	–
408.25 K, 19999 kPa	–	511.74	–
408.25 K, 24993 kPa	–	524.63	–
408.25 K, 29986 kPa	–	535.55	–
408.25 K, 35006 kPa	–	545.13	–
408.25 K, 39984 kPa	–	553.58	–
411.21 K, Liquid	–	–	3016
413.25 K, 3663 kPa	–	405.52	–
413.25 K, 4996 kPa	–	426.54	–
413.25 K, 9995 kPa	–	466.32	–
413.25 K, 14985 kPa	–	489.18	–
413.25 K, 19983 kPa	–	505.96	–
413.25 K, 24984 kPa	–	519.43	–
413.25 K, 30003 kPa	–	530.83	–
413.25 K, 34985 kPa	–	540.64	–
413.25 K, 39999 kPa	–	549.4	–
416.99 K, Liquid	–	–	3326
418.25 K, 3926 kPa	–	390.44	–
418.25 K, 5005 kPa	–	412.09	–
418.25 K, 10002 kPa	–	457.93	–
418.25 K, 14984 kPa	–	482.48	–
418.25 K, 19988 kPa	–	500.19	–
418.25 K, 25008 kPa	–	514.29	–
418.25 K, 30007 kPa	–	526.05	–
418.25 K, 34987 kPa	–	536.18	–
418.25 K, 40000 kPa	–	545.19	–
423.25 K, 4203 kPa	–	373.85	–
423.25 K, 4985 kPa	–	394.86	–
423.25 K, 9986 kPa	–	449.09	–
423.25 K, 14991 kPa	–	475.65	–
423.25 K, 20002 kPa	–	494.39	–
423.25 K, 24993 kPa	–	509.02	–
423.25 K, 30004 kPa	–	521.25	–
423.25 K, 34988 kPa	–	531.71	–
423.25 K, 39993 kPa	–	540.98	–
423.45 K, Liquid	–	–	3697
428.25 K, 4495 kPa	–	355.87	–
428.25 K, 4987 kPa	–	374.39	–
428.25 K, 9990 kPa	–	440.12	–
428.25 K, 14983 kPa	–	468.7	–
428.25 K, 20010 kPa	–	488.52	–
428.25 K, 24997 kPa	–	503.78	–
428.25 K, 30004 kPa	–	516.44	–
428.25 K, 34994 kPa	–	527.25	–
428.25 K, 39986 kPa	–	536.76	–
433.25 K, 5019 kPa	–	349.08	–
433.25 K, 9991 kPa	–	430.38	–
433.25 K, 14995 kPa	–	461.71	–
433.25 K, 19998 kPa	–	482.53	–
433.25 K, 25004 kPa	–	498.52	–
433.25 K, 30001 kPa	–	511.61	–
433.25 K, 34993 kPa	–	522.78	–
433.25 K, 39997 kPa	–	532.57	–
438.25 K, 5017 kPa	–	309.55	–
438.25 K, 9985 kPa	–	420.62	–
438.25 K, 14989 kPa	–	454.5	–
438.25 K, 19998 kPa	–	476.52	–
438.25 K, 25008 kPa	–	493.22	–
438.25 K, 30004 kPa	–	506.79	–
438.25 K, 34989 kPa	–	518.29	–
438.25 K, 39985 kPa	–	528.34	–
443.25 K, 5019 kPa	–	241.91	–
443.25 K, 9986 kPa	–	410.38	–
443.25 K, 14991 kPa	–	447.2	–
443.25 K, 20002 kPa	–	470.46	–
443.25 K, 25001 kPa	–	487.86	–
443.25 K, 30002 kPa	–	501.91	–
443.25 K, 34997 kPa	–	513.82	–
443.25 K, 39989 kPa	–	524.15	–
448.25 K, 5019 kPa	–	186.22	–
448.25 K, 9990 kPa	–	399.76	–
448.25 K, 14990 kPa	–	439.76	–
448.25 K, 19992 kPa	–	464.3	–
448.25 K, 24997 kPa	–	482.49	–
448.25 K, 29990 kPa	–	497.07	–
448.25 K, 34988 kPa	–	509.34	–
448.25 K, 39987 kPa	–	519.97	–
453.25 K, 5019 kPa	–	159.59	–
453.25 K, 9992 kPa	–	388.61	–
453.25 K, 14987 kPa	–	432.19	–
453.25 K, 20001 kPa	–	458.19	–
453.25 K, 24998 kPa	–	477.11	–
453.25 K, 29995 kPa	–	492.22	–
453.25 K, 34989 kPa	–	504.85	–
453.25 K, 39997 kPa	–	515.79	–
458.25 K, 5018 kPa	–	143.71	–
458.25 K, 15001 kPa	–	424.61	–
458.25 K, 20004 kPa	–	451.96	–
458.25 K, 24994 kPa	–	471.69	–
458.25 K, 30004 kPa	–	487.34	–
458.25 K, 34994 kPa	–	500.33	–
458.25 K, 40004 kPa	–	511.57	–
458.26 K, 9992 kPa	–	376.95	–
463.25 K, 5019 kPa	–	132.86	–
463.25 K, 9998 kPa	–	364.93	–
463.25 K, 14997 kPa	–	416.89	–
463.25 K, 20001 kPa	–	445.66	–
463.25 K, 24994 kPa	–	466.25	–
463.25 K, 29992 kPa	–	482.44	–
463.25 K, 34997 kPa	–	495.87	–
463.25 K, 39985 kPa	–	507.37	–
468.25 K, 5019 kPa	–	124.67	–
468.25 K, 14984 kPa	–	408.44	–
468.25 K, 19991 kPa	–	439.31	–
468.25 K, 24990 kPa	–	460.78	–
468.25 K, 29991 kPa	–	477.55	–
468.25 K, 34993 kPa	–	491.38	–
468.25 K, 39991 kPa	–	503.2	–
468.26 K, 9993 kPa	–	352.22	–
473.25 K, 5018 kPa	–	118.06	–
473.25 K, 9998 kPa	–	339.4	–
473.25 K, 15002 kPa	–	400.67	–
473.25 K, 19991 kPa	–	432.96	–
473.25 K, 24985 kPa	–	455.31	–
473.25 K, 29991 kPa	–	472.65	–
473.25 K, 35002 kPa	–	486.9	–
473.25 K, 39993 kPa	–	499.03	–
478.25 K, 5018 kPa	–	112.62	–
478.25 K, 9993 kPa	–	326	–
478.25 K, 14989 kPa	–	392.47	–
478.25 K, 19985 kPa	–	426.52	–
478.25 K, 25003 kPa	–	449.85	–
478.25 K, 29992 kPa	–	467.75	–
478.25 K, 35005 kPa	–	482.42	–
478.25 K, 40012 kPa	–	494.85	–
483.25 K, 5018 kPa	–	107.95	–
483.25 K, 9988 kPa	–	312.49	–
483.25 K, 14996 kPa	–	384.28	–
483.25 K, 19982 kPa	–	420.06	–
483.25 K, 25007 kPa	–	444.4	–
483.25 K, 29987 kPa	–	462.83	–
483.25 K, 35000 kPa	–	477.93	–
483.25 K, 39990 kPa	–	490.66	–
488.25 K, 5018 kPa	–	103.9	–
488.25 K, 9985 kPa	–	299.1	–
488.25 K, 14997 kPa	–	376.01	–
488.25 K, 20002 kPa	–	413.74	–
488.25 K, 25005 kPa	–	438.9	–
488.25 K, 29988 kPa	–	457.94	–
488.25 K, 34992 kPa	–	473.43	–
488.25 K, 40013 kPa	–	486.57	–
493.25 K, 5018 kPa	–	100.36	–
493.25 K, 9986 kPa	–	285.99	–
493.25 K, 14990 kPa	–	367.61	–
493.25 K, 20001 kPa	–	407.28	–
493.25 K, 25006 kPa	–	433.4	–
493.25 K, 29986 kPa	–	453.04	–
493.25 K, 35005 kPa	–	469.02	–
493.25 K, 39997 kPa	–	482.38	–
498.25 K, 5018 kPa	–	97.2	–
498.25 K, 9992 kPa	–	273.51	–
498.25 K, 14982 kPa	–	359.21	–
498.25 K, 19993 kPa	–	400.8	–
498.25 K, 25004 kPa	–	427.91	–
498.25 K, 29983 kPa	–	448.16	–
498.25 K, 35000 kPa	–	464.56	–
498.25 K, 39994 kPa	–	478.26	–
503.25 K, 5019 kPa	–	94.38	–
503.25 K, 9995 kPa	–	261.54	–
503.25 K, 14996 kPa	–	351.04	–
503.25 K, 19991 kPa	–	394.38	–
503.25 K, 25000 kPa	–	422.42	–
503.25 K, 30008 kPa	–	443.38	–
503.25 K, 35007 kPa	–	460.15	–
503.25 K, 39992 kPa	–	474.14	–
508.25 K, 5017 kPa	–	91.73	–
508.25 K, 9986 kPa	–	249.99	–
508.25 K, 14991 kPa	–	342.7	–
508.25 K, 19987 kPa	–	387.81	–
508.25 K, 24998 kPa	–	416.93	–
508.25 K, 30007 kPa	–	438.53	–
508.25 K, 34991 kPa	–	455.68	–
508.25 K, 39996 kPa	–	470.06	–
513.25 K, 5019 kPa	–	89.39	–
513.25 K, 9982 kPa	–	239.32	–
513.25 K, 14985 kPa	–	334.4	–
513.25 K, 19985 kPa	–	381.11	–
513.25 K, 24987 kPa	–	411.43	–
513.25 K, 29999 kPa	–	433.67	–
513.25 K, 34992 kPa	–	451.29	–
513.25 K, 39993 kPa	–	465.98	–
518.24 K, 30001 kPa	–	428.87	–
518.24 K, 35000 kPa	–	446.94	–
518.25 K, 5016 kPa	–	87.15	–
518.25 K, 9990 kPa	–	229.8	–
518.25 K, 14984 kPa	–	326.26	–
518.25 K, 20002 kPa	–	374.92	–
518.25 K, 24995 kPa	–	406.05	–
518.25 K, 39988 kPa	–	461.92	–
523.24 K, 24994 kPa	–	400.62	–
523.24 K, 39996 kPa	–	457.91	–
523.25 K, 5016 kPa	–	85.12	–
523.25 K, 9982 kPa	–	220.69	–
523.25 K, 14998 kPa	–	318.44	–
523.25 K, 20000 kPa	–	368.56	–
523.25 K, 29990 kPa	–	424.03	–
523.25 K, 34989 kPa	–	442.55	–
Liquid, visual observation in a variable volume cell:FP	236.4	–	–

Liquid
Details	Critical pressure [kPa]	Critical temperature [K]
–	4027.3	428.61
